Data on 25 compounds can be found in patent US20140045856A1, “4-Methyl-2,3,5,9,9b-pentaaza-cyclopenta[a]naphthalenes” (BOEHRINGER INGELHEIM INTERNATIONAL GMBH, priority 2012, published 2014).

For data set [1], the target named is hERG channel (Homo sapiens, UniProt Q12809). Briefly: hERG channel assay (whole-cell patch clamp, HEK293 cells transfected with hERG cDNA). It counts as cell-based. Particulars: 35° C. The source says:
hERG (Human Ether-à-Go-Go-Related Gene)-Channel Assay
hERG channel inhibition of compounds of the present invention has been investigated as follows:
HEK (human embryonic kidney) 293 cells were stably transfected with hERG cDNA. Cells were superfused with a bath solution containing (mM): NaCl (137), KCl (4.0), MgCl2 (1.0), CaCl2 (1.8), Glucose (10), HEPES (10), pH 7.4 with NaOH. Patch pipettes were made from borosilicate glass tubing using a horizontal puller and filled with pipette solution containing (mM): K-aspartate (130), MgCl2 (5.0), EGTA (5.0), K2ATP (4.0), HEPES (10.0), pH 7.2 with KOH. Resistance of the microelectrodes was in the range between 2 and 5 MΩ.
Stimulation and Recording:
Membrane currents were recorded using an EPC-10 patch clamp amplifier and PatchMaster software. hERG-mediated membrane currents were recorded at 35° C., using the whole-cell configuration of the patch-clamp technique. Transfected HEK293 cells were clamped at a holding potential of −60 mV and hERG-mediated inactivating tail currents were elicited using a pulse pattern with fixed amplitudes (activation/inactivation: 40 mV for 2000 ms; recovery: […]; ramp to 40 mV in 2 ms; inactivating tail current: 40 mV for 50 ms) repeated at 15 s intervals. During each inter-pulse interval 4 pulses scaled down by a factor of 0.2 were recorded for a P/n leak subtraction procedure. […] compensation was employed up to a level that safely allowed recording devoid of ringing.
Compound Preparation and Application:
The different concentrations of the test compound were applied sequentially on each of the different cells investigated. A steady state level of baseline current was measured for at least 6 sweeps prior to the application of the first test compound concentration.
The test compound was dissolved in DMSO to yield a master stock solution which was diluted further in DMSO to stock solutions needed for the lower concentrations. Final dilutions in extracellular buffer were prepared freshly from these stocks by a 1:1000 dilution step each before starting the experiments.
Data analysis and IC50 determination:
Peak current amplitudes were measured 3 ms after the ramp to +40 mV. For baseline and each concentration the peak currents of the three last sweeps before application of the next concentration were averaged. Residual currents ( 1/10) were calculated for each cell as the fraction of actual average peak current and average baseline peak current.
The logistic concentration-response curve of the following form was fitted to the residual current data using a genetic algorithm:
C: actual concentration of compound (in μM) IC50: half-inhibitory concentration (in μM) p: Hill slope

Data set [2] in a line: Metabolic stability in pooled liver microsomes. It counts as in vitro ADME. Particulars: human liver microsomes, 37° C., 1 mg/mL microsomal protein, test compound 1 μM, NADPH. Here is the method: The metabolic stability of the compounds according to the invention has been investigated as follows:
The metabolic degradation of the test compound was assayed at 37° C. with pooled liver microsomes from various species. The final incubation volume of 100 μl per time point contains TRIS buffer pH 7.6 at room temperature (0.1 M), magnesium chloride (5 mM), microsomal protein (1 mg/mL for human and dog, 0.5 mg/mL for other species) and the test compound at a final concentration of 1 μM. Following a short preincubation period at 37° C., the reactions were initiated by addition of betanicotinamide adenine dinucleotide phosphate, reduced form (NADPH, 1 mM), and terminated by transferring an aliquot into solvent after different time points. […] The half-life was determined by the slope of the semi-logarithmic plot of the concentration-time profile.
In general terms: Microsomes from liver hold many membrane-bound enzymes, among them those of drug oxidation.

Data set [3] deals with PDE10 (Homo sapiens, UniProt Q9Y233). Briefly: PDE10 assay with fluorescent substrate (IMAP, fluorescence polarization). It counts as biochemical. In general terms: Polarisation of emitted light reports the rotation of a fluorescent probe.
Chain of PDE10 (Q9Y233 whole entry, species assumed): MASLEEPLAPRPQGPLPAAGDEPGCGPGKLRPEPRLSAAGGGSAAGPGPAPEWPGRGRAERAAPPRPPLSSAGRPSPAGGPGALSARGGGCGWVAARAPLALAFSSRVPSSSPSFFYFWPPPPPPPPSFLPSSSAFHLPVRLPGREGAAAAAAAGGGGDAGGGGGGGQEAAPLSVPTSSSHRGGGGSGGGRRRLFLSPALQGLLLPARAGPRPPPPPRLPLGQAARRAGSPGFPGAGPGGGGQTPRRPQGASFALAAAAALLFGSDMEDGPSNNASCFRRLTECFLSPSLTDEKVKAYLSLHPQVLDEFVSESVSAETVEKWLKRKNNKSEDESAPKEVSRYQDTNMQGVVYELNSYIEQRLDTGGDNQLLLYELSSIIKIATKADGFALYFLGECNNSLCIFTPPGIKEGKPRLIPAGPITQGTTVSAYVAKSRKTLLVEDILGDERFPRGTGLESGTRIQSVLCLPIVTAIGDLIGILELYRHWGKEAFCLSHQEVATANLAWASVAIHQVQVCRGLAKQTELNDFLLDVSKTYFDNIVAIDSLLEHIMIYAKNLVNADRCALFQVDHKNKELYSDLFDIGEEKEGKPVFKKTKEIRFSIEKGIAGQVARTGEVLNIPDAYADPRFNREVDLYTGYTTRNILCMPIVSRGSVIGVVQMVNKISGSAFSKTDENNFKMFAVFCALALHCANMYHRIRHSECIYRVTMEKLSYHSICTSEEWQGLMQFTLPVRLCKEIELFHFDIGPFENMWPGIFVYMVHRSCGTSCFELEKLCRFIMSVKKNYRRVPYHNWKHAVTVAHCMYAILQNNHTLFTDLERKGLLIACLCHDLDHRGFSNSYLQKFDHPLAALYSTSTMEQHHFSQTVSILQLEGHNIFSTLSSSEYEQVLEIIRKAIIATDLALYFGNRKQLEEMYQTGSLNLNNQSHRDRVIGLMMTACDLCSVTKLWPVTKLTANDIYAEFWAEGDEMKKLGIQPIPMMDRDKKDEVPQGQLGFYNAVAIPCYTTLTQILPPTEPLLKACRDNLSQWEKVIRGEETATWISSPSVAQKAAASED
Text: c) Phosphodiesterase (PDE) 2A and 10 Assay with Fluorescent Substrate
The PDE reaction cleaves cAMP to AMP. The IMAP system (Molecular Device) using fluorescence polarization (FP) as detection principle was used to measure enzyme activity. A fluorescent labeled cAMP was used as substrate for the reaction, generating a labeled AMP. The fluorescent AMP binds specifically to the large M(III)-based nano-particles which reduces the rotational speed of the substrate and thus increases its polarization.
The inhibition of PDE 2A or 10 enzyme activity was assessed using IMAP-Phosphodiesterase-cAMP fluorescence labeled substrate (Molecular Devices, Order No. R7506), IMAP TR-FRET screening express (Molecular Devices, Order No. R8160, the TR-FRET component will not be used) and PDE 2A or PDE10 protein expressed upon baculovirus infection in SF9 cells. The cells were incubated after infection for ˜3 days and protein production was confirmed by Western Blot. The cells were collected by centrifugation and the pellet frozen in liquid nitrogen before it was resuspended in PBS containing 1% Triton X-100 and protease inhibitors.
All reactions were performed in 384 well plates, Perkin Elmer black optiplates and IMAP reaction buffer with 0.1% Tween20 (kit component)
Compounds were serial diluted in DMSO. With an intermediate dilution step with reaction buffer DMSO concentration was reduced to achieve 1% DMSO in the assay reaction. Setup of the assay started with 10 μl enzyme (˜10 ng/well, depending on prep. batch), 5 μl compound, reaction was started by addition of 5 μl labeled cAMP (30 nM, final concentration), immediately mixed for 15 seconds on a Eppendorf mixmate (2000 rpm) followed by an incubation at room temperature for 90 minutes in the dark. Reaction is stopped by adding of 60 μl binding buffer for FP/cAMP (kit component).
Each assay plate contained wells with vehicle controls (1% DMSO) for the measurement of non-inhibited reaction (=100% control) and wells without enzyme as 0% controls.
The target of data set [4] is PDE 10A (Homo sapiens, UniProt Q9Y233). In words: Radioactive PDE10 assay ([3H]cAMP SPA). The class given is biochemical.
Chain of PDE 10A (Q9Y233 whole entry, species assumed): as above
Experimental: (§1) The activity of the positive control (minus the negative control=background) is set to 100% and activity in the presence of compound is expressed relative to these 100%.
(§2) IC50 are calculated with GraphPadPrism or other suited software setting the positive control as 100 and the negative control as 0. For calculation of IC50 usually 11 dilutions of the test compound are selected.
protein concentration: 75 pg/μl
In detail the protocol is as follows:
(§3) Into a 384 well plate (OptiPlate, white), the following components are pipetted (either manually or using automated pipetting devices):
(§4) 20 μl test-compound solution (test compound diluted in assay buffer at twofold the desired concentration)
+10 μl PDE 10A preparation (enzyme diluted in assay buffer to a concentration of 0.3 ng/μl protein)
+10 μl cAMP tracer (diluted in assay buffer to a concentration of 80 nM cAMP, specific activity ˜4 mCi/l)
After addition of all 3 components the plates are shortly spun and incubated at room temperature for 60 min. The reaction is stopped by the addition of 20 μl Yttrium SPA PDE Beads containing 18 mM zinc sulphate in water
PDE 10A protein is expressed upon baculovirus infection in SF9 cells. The cells have been incubated upon infection for ˜3 days and protein production was confirmed by Western Blot. The cells were collected by centrifugation and the pellet frozen in liquid nitrogen before it was resuspended in PBS containing 1% Triton X-100 and protease inhibitors.
In data set [5] the target is T1, PDE2A (Homo sapiens, UniProt O00408). In words: PDE 2A assay with fluorescent substrate (IMAP, fluorescence polarization). It counts as biochemical. Particulars: read-out: PDE2 IC50.
T1 sequence (O00408 whole entry, species assumed): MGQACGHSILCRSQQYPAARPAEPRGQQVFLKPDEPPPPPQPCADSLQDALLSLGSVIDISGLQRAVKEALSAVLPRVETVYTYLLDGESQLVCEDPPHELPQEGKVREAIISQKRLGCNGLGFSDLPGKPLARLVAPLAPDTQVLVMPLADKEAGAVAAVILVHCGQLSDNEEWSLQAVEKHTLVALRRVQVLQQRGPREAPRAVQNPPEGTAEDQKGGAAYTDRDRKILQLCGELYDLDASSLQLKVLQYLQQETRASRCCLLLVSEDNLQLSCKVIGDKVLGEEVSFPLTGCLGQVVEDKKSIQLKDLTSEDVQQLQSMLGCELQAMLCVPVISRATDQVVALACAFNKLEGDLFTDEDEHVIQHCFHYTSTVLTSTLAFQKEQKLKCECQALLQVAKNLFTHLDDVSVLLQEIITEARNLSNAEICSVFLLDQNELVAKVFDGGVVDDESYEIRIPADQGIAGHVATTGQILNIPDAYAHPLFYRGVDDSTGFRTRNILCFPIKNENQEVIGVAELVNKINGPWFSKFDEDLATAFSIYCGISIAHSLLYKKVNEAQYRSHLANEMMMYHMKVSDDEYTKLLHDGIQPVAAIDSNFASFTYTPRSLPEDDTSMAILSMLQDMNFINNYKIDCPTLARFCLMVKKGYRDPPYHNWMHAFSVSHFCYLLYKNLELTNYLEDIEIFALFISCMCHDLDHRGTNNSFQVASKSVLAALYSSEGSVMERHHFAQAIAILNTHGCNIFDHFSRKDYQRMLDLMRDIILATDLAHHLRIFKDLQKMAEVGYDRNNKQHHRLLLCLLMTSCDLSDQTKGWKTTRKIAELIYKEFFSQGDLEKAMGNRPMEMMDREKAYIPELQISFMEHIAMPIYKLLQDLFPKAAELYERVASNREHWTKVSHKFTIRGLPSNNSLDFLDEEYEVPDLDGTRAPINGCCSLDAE
Data set [6] concerns the target T1, PDE2A. In words: Radioactive PDE2 assay ([3H]cAMP SPA). It counts as biochemical.
Experimental: a) Radioactive PDE2 Assay Protocol:
PDE 2A protein is expressed upon baculovirus infection in SF9 cells. The cells have been incubated upon infection for ˜3 days and protein production was confirmed by Western Blot. The cells were collected by centrifugation and the pellet frozen in liquid nitrogen before it was resuspended in PBS containing 1% Triton X-100 and protease inhibitors.
as §3, §4
+10 μl PDE 2A preparation (enzyme diluted in assay buffer to a concentration of 0.5 ng/μl protein)
+10 μl [^3H]cAMP (diluted in assay buffer to a concentration of 80 nM cAMP)
positive control: no inhibitor, DMSO at the concentration as used in the compound dilutions
negative control: no PDE 2 (SF9 lysate instead of SF9/PDE 2A lysate)
Calculation of % Inhibition:
as §1, §2
Data set [7] can be described thus: Animal experiments and sample analysis: plasma, brain and CSF concentration. The class given is in vivo. Particulars: rat; for concentration at 0.5 h: 0.5 h between administration and CSF sampling; for concentration at 0.5 h / concentration at 2 h: doses of 10.0 or 5 μmol/kg; for concentration at 2 h / Kp at 2 h: 2 h between administration and CSF sampling.
Experimental: Test compounds were administered to animals (rat) different routes at doses of 10.0 or 5 μmol/kg, (both oral and intravenous). After compound administration, the animals were sacrificed in a CO2 chamber and CSF samples were carefully collected by puncture of the cisterna magna. Immediately after CSF sampling, blood was taken by heart puncture and brains were dissected out. Blood was collected in EDTA-coated microvettes and plasma was prepared by centrifugation. Concentration of the test compounds in plasma, CSF or brain homogenate was determined using HPLC-MS-MS.
Where [8] appears, read: brain, read-out: c(brain)/c(plasma).

SMILES strings stand for the structures. pIC50: −log10 of the molar value. Where two headings read alike, the source gives them in different places.

Chain of hERG channel (Q12809 whole entry): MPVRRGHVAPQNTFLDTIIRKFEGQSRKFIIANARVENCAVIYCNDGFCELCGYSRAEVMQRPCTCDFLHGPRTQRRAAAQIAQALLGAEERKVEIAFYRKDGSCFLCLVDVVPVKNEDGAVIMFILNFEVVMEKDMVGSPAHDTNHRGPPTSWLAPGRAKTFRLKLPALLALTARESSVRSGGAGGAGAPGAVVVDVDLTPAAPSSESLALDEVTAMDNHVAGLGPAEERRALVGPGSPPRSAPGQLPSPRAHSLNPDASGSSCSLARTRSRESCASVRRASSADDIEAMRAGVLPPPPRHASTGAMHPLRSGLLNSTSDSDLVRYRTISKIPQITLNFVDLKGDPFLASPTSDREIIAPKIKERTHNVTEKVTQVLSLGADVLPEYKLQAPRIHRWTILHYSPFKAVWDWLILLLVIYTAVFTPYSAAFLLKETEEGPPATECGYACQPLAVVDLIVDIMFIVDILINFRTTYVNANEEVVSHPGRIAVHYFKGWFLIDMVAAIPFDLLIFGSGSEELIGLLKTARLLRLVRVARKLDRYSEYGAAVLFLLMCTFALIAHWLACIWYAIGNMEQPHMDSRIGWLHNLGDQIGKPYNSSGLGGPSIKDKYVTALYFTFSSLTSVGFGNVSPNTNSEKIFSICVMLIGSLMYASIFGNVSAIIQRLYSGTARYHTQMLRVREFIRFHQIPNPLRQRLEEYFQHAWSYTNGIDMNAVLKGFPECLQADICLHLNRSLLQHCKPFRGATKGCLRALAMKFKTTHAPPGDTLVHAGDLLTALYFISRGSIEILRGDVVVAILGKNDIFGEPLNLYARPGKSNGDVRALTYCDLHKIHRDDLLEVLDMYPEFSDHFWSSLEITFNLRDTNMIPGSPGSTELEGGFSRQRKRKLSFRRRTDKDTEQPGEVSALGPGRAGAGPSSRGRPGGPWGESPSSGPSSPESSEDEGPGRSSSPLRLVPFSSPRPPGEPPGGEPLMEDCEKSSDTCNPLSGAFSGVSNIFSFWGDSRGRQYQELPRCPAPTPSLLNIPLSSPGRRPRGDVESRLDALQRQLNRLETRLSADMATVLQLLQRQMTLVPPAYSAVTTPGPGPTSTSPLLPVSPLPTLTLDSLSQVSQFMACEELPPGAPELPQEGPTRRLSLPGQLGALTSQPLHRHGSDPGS

As to `Cc1nc2cccnc2n2c(-c3cc(OC4COCC4O)ccc3Cl)nnc12` (racemic) [Example 55], in data set [1], the pIC50 was below 5.00. In data set [2], the “Half-life - t½” value is 130 min.
As for `Cc1nc2cccnc2n2c(-c3cc(O)ccc3Cl)nnc12` [Example 1], the values for the pIC50 in data set [3] and in data set [4] were 6.45 and 6.38, respectively. Also, the “Half-life - t½” value in data set [2] worked out at 130 min.
For `Cc1nc2cccnc2n2c(-c3cc(OCCO)ccc3Cl)nnc12` [Example 15], the pIC50 in data set [3] was 5.95; in data set [5], 6.95; in data set [6] it was 7.40.
As to `Cc1nc2cccnc2n2c(-c3cc(OC[C@H](C)O)ccc3Cl)nnc12` [Example 18], the pIC50 in data set [1] was below 5.00. In addition, in data set [2], the “Half-life - t½” value turned out to be 130 min. For the same compound, the concentration at 0.5 h in data set [7] (brain, read-out: conc brain) was found to be 351 nM; in data set [7] (plasma, read-out: conc plasma), 1220 nM; in data set [7] (read-out: conc CSF) it was 163 nM.
As to `Cc1nc2cccnc2n2c(-c3cc(OC4CCOCC4)ccc3Cl)nnc12` [Example 20], the pIC50 in data set [1] was below 5.00; in data set [4], 5.56. For the same compound, in data set [2], the “Half-life - t½” value was found to be 130 min. Moreover, the concentration at 0.5 h was 272 nM in data set [7] (brain, read-out: conc brain); 338 nM in data set [7] (plasma, read-out: conc plasma); 37 nM in data set [7] (read-out: conc CSF).
On to `Cc1nc2cccnc2n2c(-c3cc(OC4CCOC4)ccc3Cl)nnc12` (centres unmarked) [Example 22], for which the values for the pIC50 in data set [5] and in data set [6] were 6.68 and 6.94, respectively.
The matching figures for `Cc1nc2cccnc2n2c(-c3cc(O[C@@H]4CCOC4)ccc3Cl)nnc12` [Example 23]: 6.67 and 7.15.
For the compound `Cc1nc2cccnc2n2c(-c3cc(O[C@H]4CCOC4)ccc3Cl)nnc12` [Example 24], the pIC50 in data set [6] is 6.86.
On to `Cc1ccc2nc(C)c3nnc(-c4cc(OCCCO)ccc4Cl)n3c2n1` [Example 27], for which the figures for the pIC50 in data set [3], in data set [1] and in data set [4] were 6.02, below 5.00 and 6.01, respectively.
As for `Cc1ccc2nc(C)c3nnc(-c4cc(OC5CCOCC5)ccc4Cl)n3c2n1` [Example 32], the pIC50 in data set [1] was below 5.00. Moreover, in data set [2], the “Half-life - t½” value was 130 min.
Consider `Cc1ccc2nc(C)c3nnc(-c4cc(OCCCOC(F)(F)F)ccc4Cl)n3c2n1` [Example 33], for which the pIC50 in data set [5] was 8.30; in data set [6], 8.40.
With `Cc1ccc2nc(C)c3nnc(-c4cc(OC[C@H](C)O)ccc4Cl)n3c2n1` [Example 34], the values for the pIC50 in data set [5], in data set [1] and in data set [6] were 7.77, below 5.00 and 8.05, respectively. In addition, the “Half-life - t½” value in data set [2] was 130 min. The concentration at 0.5 h in data set [7] (brain, read-out: conc brain) was 146 nM; in data set [7] (plasma, read-out: conc plasma), 223 nM; in data set [7] (read-out: conc CSF), 19 nM.
As to `Cc1ccc2nc(C)c3nnc(-c4cc(OC[C@@H](C)O)ccc4Cl)n3c2n1` [Example 35], the pIC50 was 7.77 in data set [5] and 8.05 in data set [6]. The “Half-life - t½” value in data set [2] is reported as 130 min.
As for `Cc1nc2cccnc2n2c(-c3cc(OC4CCC(O)C4)ccc3Cl)nnc12` (centres unmarked) [Example 40], the pIC50 in data set [5] is 7.11; in data set [6], 7.10.
With `Cc1nc2ccc(C3CC3)nc2n2c(-c3cc(OCC(C)(C)O)ccc3Cl)nnc12` [Example 45], in data set [1], the pIC50 was below 5.00. Also, the “Half-life - t½” value in data set [2] is recorded as 130 min. Moreover, the concentration at 2 h in data set [7] (brain, read-out: conc brain) was determined as 183 nM; in data set [7] (plasma, read-out: conc plasma), 801 nM; in data set [7] (read-out: conc CSF) it was 25 nM.
Take `Cc1nc2ccc(C3CC3)nc2n2c(-c3cc(OCC(C)(C)O)ccc3F)nnc12` [Example 47]: the results for the pIC50 in data set [3], in data set [5] and in data set [1] were 6.07, 8.10 and below 5.00, respectively. Also, the “Half-life - t½” value in data set [2] amounted to 130 min. The concentration at 2 h in data set [7] (brain, read-out: conc brain) amounted to 441 nM; in data set [7] (plasma, read-out: conc plasma) it was 622 nM; in data set [7] (read-out: conc CSF) it was 22 nM. Besides, the Kp at 2 h in data set [7] (setting [8]) is 0.7; in data set [7] (read-out: c(CSF)/c(plasma)), 0.04.
Take `Cc1ccc(OCC(C)(C)O)cc1-c1nnc2c(C)nc3ccc(C4CC4)nc3n12` [Example 48]: the pIC50 was 8.10 in data set [5] and below 5.00 in data set [1]. In data set [2], the “Half-life - t½” value came out at 130 min.
For `Cc1nc2cccnc2n2c(-c3cc(OCC4(O)CCC4)ccc3Cl)nnc12` [Example 49], the pIC50 in data set [3] is 5.42; in data set [5], 7.48; in data set [1], below 5.00. Also, the “Half-life - t½” value in data set [2] amounted to 130 min. Further, the concentration at 2 h in data set [7] (brain, read-out: conc brain) was 47 nM; in data set [7] (plasma, read-out: conc plasma), 239 nM; in data set [7] (read-out: conc CSF) it was 13 nM. Further, the Kp at 2 h is 0.2 in data set [7] (setting [8]) and 0.06 in data set [7] (read-out: c(CSF)/c(plasma)).
For `Cc1nc2cccnc2n2c(-c3cc(CCC(C)(C)O)ccc3Cl)nnc12` [Example 64], the pIC50 in data set [3] is 5.41; in data set [5] it was 7.35; in data set [1], below 5.00. Besides, in data set [2], the “Half-life - t½” value came out at 130 min. The concentration at 2 h was 254 nM in data set [7] (brain, read-out: conc brain); 783 nM in data set [7] (plasma, read-out: conc plasma); 37 nM in data set [7] (read-out: conc CSF). Moreover, the Kp at 2 h in data set [7] (setting [8]) was 0.5; in data set [7] (read-out: c(CSF)/c(plasma)), 0.06.
In data set [1], `Cc1ccc(C(C)(C)O)cc1-c1nnc2c(C)nc3ccc(C4CC4)nc3n12` [Example 75] had a pIC50 below 5.00. The “Half-life - t½” value in data set [2] worked out at 130 min. The concentration at 2 h is 383 nM in data set [7] (brain, read-out: conc brain); 1130 nM in data set [7] (plasma, read-out: conc plasma); 31 nM in data set [7] (read-out: conc CSF). The Kp at 2 h in data set [7] (setting [8]) came out at 0.34; in data set [7] (read-out: c(CSF)/c(plasma)), 0.03.
With `Cc1nc2ccc(C3CC3)nc2n2c(-c3cc(C(C)(C)O)ccc3F)nnc12` [Example 76], the pIC50 was 5.96 in data set [3], 7.68 in data set [5] and below 5.00 in data set [1]. In addition, the “Half-life - t½” value in data set [2] was found to be 130 min. The concentration at 2 h was determined as 218 nM in data set [7] (brain, read-out: conc brain); 463 nM in data set [7] (plasma, read-out: conc plasma); 18 nM in data set [7] (read-out: conc CSF). Also, the Kp at 2 h in data set [7] (setting [8]) was 0.5; in data set [7] (read-out: c(CSF)/c(plasma)), 0.04.
As for `Cc1nc2cccnc2n2c(-c3cc(CC(C)(C)O)ccc3Cl)nnc12` [Example 82], the pIC50 in data set [3] was 5.25; in data set [5] it was 6.70; in data set [1], below 5.00. Moreover, in data set [2], the “Half-life - t½” value was 130 min.
For `Cc1nc2ccc(C3CC3)nc2n2c(-c3cc(C(C)(C)O)ccc3Cl)nnc12` [Example 85], the pIC50 in data set [3] was 5.36; in data set [5] it was 8.22; in data set [1], below 5.00. Moreover, in data set [2], the “Half-life - t½” value was 130 min.
The corresponding values for `Cc1nc2cccnc2n2c(-c3cc(C4(O)CCC4)ccc3Cl)nnc12` [Example 87] are 5.59, 7.13, below 5.00 and 130 min.
The matching figures for `Cc1nc2cccnc2n2c(-c3cc(C4(O)CCOCC4)ccc3Cl)nnc12` [Example 93]: 5.21, 7.07, below 5.00 and 130 min.

Usually pIC50 stands for the IC50 on a negative log10 scale, so that one unit is a factor of ten.
